Measurements taken from patent publication US8597646B2, “Methods and compositons featuring TGF-beta antagonists for the treatment of marfan syndrome and associated disorders” (The Johns Hopkins University, priority 2005, dated 2013).
“Also recorded” adds a separate entry of the source.

Legend:
mdx mice = experiment: Long-term losartan in mdx mice: fibrosis and centrally located nuclei in diaphragm and gastrocnemius; assay type: in vivo, mouse
Procedure: (§1) Mice were continued on oral therapy for 6 months and sacrificed. […] Age-matched wild-type and mdx mice (placebo-treated) served as a control group. After 6 months of treatment, forelimb and hindlimb grip strength was assessed using an automated grip strength meter (Columbus Instruments, Columbus, Ohio). The experiments for forelimb and hindlimb grip strength testing were conducted at different days allowing for a minimum recovery period of 10 days. Total peak force (in Newtons) was determined by an electronic strain gauge as previously described and corrected for body weight (Wagner, K. R., et al. (2002) Ann Neurol 52, 832-6). Five measurements within 2 minutes were taken from each animal. The three highest measurements for each animal were averaged to give the strength score. The degree of fatigue was calculated by comparing the first two pulls to the last two pulls with the decrement between pulls 1+2 and pulls 4+5 providing a measure of fatigue. Similarly, functional measurements were performed in 6 month old fibrillin-1 deficient mice (Fbn1^mgR) (Pereira, L. et al. (1997) Nat Genet. 17, 218-22) after 5 months of treatment.
For morphometric analyses, skeletal muscle was flash frozen in cooled isopentane and mounted in Tragacanth (Sigma Aldrich, USA). Subsequently, 10 μm sections were stained with hematoxylin and eosin. Muscle fibers were counted in a defined area (9 mm^2) of the tibialis anterior muscle of 10-day-old wild-type (n=3) and Fbn1C1039G/C1039G mice (n=6) and fiber diameter was determined by measuring the shortest fiber axis within cross-sections of the tibialis anterior muscle, counting a total of 850-1500 fibers. The cross sectional area of undamaged and regenerating myofibers of the tibialis anterior muscle from wild-type and Fbn1^C1039G/+ mice was expressed as a distribution of the percentage of the total number of myofibers analyzed (850-1500) (Horsley, V. et al (2003) Cell 113, 483-94). Sections of skeletal muscle were taken along the same anatomical region of the mid-belly of the tibialis anterior muscle. The number of c-met, M-cadherin- and myogeninpositive cells in 50 fields of the tibialis anterior muscle mid-belly area was scored using the x40 objective. At least six animals per genotype were scored and all analyses were performed by investigators blinded to genotype and treatment group. All images were taken using an Eclipse E400 microscope (Nikon Inc.) and cross-sectional area measurements were determined using IPLAB software (Scanalytics, Fairfax, Va.). Neonatal myosin-positive fibers after cardiotoxin challenge were quantified by counting 900-1240 fibers per toxin-challenged muscle (n=4). For quantification of fibrotic tissue formation in toxin challenged mice (n=4), immunofluorescent staining for vimentin was performed. Five sections throughout the entire tibialis anterior muscle were analyzed at low magnification and vimentin positive areas were calculated as a percentage of the total muscle area using the NIH Scion image software, public domain. Similarly, van-Gieson and vimentin stained sections were used to delineate the percentage of fibrotic versus total muscle area in diaphragm and gastrocnemius of long-term losartan-treated, placebo-treated mdx and wild-type mice (n=6 each group) using the NIH Scion software. For evaluation of percent centrally located nuclei a total of 1100-1300 muscle fibers per diaphragm of each mouse (n=6, each group) and a total of 1900-2200 muscle fibers per gastrocnemius of each mouse (n=6, each group) were calculated.

Fbn1C1039G/+ mice = experiment: Steady-state skeletal muscle architecture and fiber cross sectional area in Fbn1C1039G/+ mice; assay type: in vivo, mouse; details: for Steady-state muscle architecture, in words: fibrillin-1 deficient mice, monopotassium salt
Procedure: Wild-type and Fbn1^C1039G/+ mice received intraperitoneal injections of TGFβ-neutralizing antibody (R&D Systems, once every two weeks) starting at 7 weeks of age. The antibody was diluted in PBS (pH 7.4) and administered at a dose of 1 mg/kg or 10 mg/kg body weight. Rabbit IgG (10 mg/kg; Zymed Laboratories Inc.) was administered in a similar fashion as a negative control. Mice were sacrificed after 2 months of treatment and a minimum of 6 mice per genotype were used for histologic and morphometric analyses.
as §1, with “The three highest measurements for each animal were averaged to give the strength score.” left out, “Similarly, functional measurements were performed in 6 month old fibrillin-1 deficient mice (Fbn1^mgR) (Pereira, L. et al. (1997) Nat Genet. 17, 218-22) after 5 months of treatment.” left out
For morphometric analyses, skeletal muscle was flash frozen in cooled isopentane and mounted in Tragacanth (Sigma Aldrich, USA). […] Muscle fibers were counted in a defined area (9 mm^2) of the tibialis anterior muscle of 10-day-old wild-type (n=3) and Fbn1C1039G/C1039G mice (n=6) and fiber diameter was determined by measuring the shortest fiber axis within cross-sections of the tibialis anterior muscle, counting a total of 850-1500 fibers. The cross sectional area of undamaged and regenerating myofibers of the tibialis anterior muscle from wild-type and Fbn1^C1039G/+ mice was expressed as a distribution of the percentage of the total number of myofibers analyzed (850-1500) (Horsley, V. et al (2003) Cell 113, 483-94). […]

CCCCc1nc(Cl)c(CO)n1Cc1ccc(-c2ccccc2-c2nnn[nH]2)cc1.[K] [losartan, 2-butyl-4-chloro-1-[p-(o-1H-tetrazol-5-ylphenyl)benzyl]imidazole-5-methanol monopotassium salt]
Muscle fibers containing centrally located nuclei, diaphragm and gastrocnemius, in words (mdx mice; 6 months of losartan): increased percentage
Centrally located nuclei, gastrocnemius (mdx mice; 6 months of losartan, mdx 25±5, wild-type 2±0.5): 36%±+6
Fibrotic area, diaphragm (mdx mice; 6 months of losartan, mdx 32±5, wild-type 4±1): 18%±4
Percentage of centrally located nuclei, diaphragm (mdx mice; 6 months of losartan, mdx 35±5, wild-type 2±0.5): 48%±6
Fibrosis, gastrocnemius (mdx mice; 6 months of losartan, mdx 75±6.4, wild-type 4±2): 89%±5.8
Myopathic disease progression / steady-state architecture in mdx mice (mdx mice; long-term losartan, 9 month-old mdx mice, monopotassium salt): significant attenuation of disease progression; also recorded: improved steady-state architecture; also recorded: attenuates myopathic disease progression
Steady-state muscle architecture, in words (Fbn1C1039G/+ mice; listed as Losartan): rescued; also recorded: normalized
Steady-state muscle architecture, in words (Fbn1C1039G/+ mice): fully normalized
Mean fiber size (muscle fiber cross sectional area) (Fbn1C1039G/+ mice; steady state, postnatal losartan, untreated 1746±39, wild-type 2741±69): 2527±58 μm^2
